Laboratory results reported in US8575197B2, “Pyrolinone derivative and pharmaceutical composition comprising the same” (Shionogi & Co., Ltd., priority 2008, dated 2013).

These molecules were tested against human P2X3 receptor (Homo sapiens (Human), UniProt P56373) (assay: P2X3 receptor inhibition, ATP-evoked Fluo-3 calcium fluorescence (FDSS 3000)). Conditions: C6BU-1 cell transfected with human P2X3 receptor gene; ATP-evoked Fluo-3 fluorescence.
Format: cell-based
Description: Stably expressing cell line (C6BU-1 cell transfected with human P2X3 receptor gene (GenBank accession number Y07683)) was used. The cells were seeded in a 96-well microtiter plate at a concentration of 8000 cells/well and cultured in the medium (8.3% fetal bovine serum, 8.3% horse serum, 1% antibiotic and antifungal in DMEM) for one day at 37° C. under 5% carbon dioxide atmosphere. The medium was replaced with 4 μM Fluo-3-AM solution (pH7.5) containing 20 mM HEPES, 137 mM NaCl, 2.7 mM KCl, 0.9 mM MgCl2, 5.0 mM CaCl2, 5.6 mM D-glucose, 2.5 mM probenecid, 10% BSA, and 0.08% Pluronic F-127, and incubated at 37° C. under 5% dioxide carbon atmosphere for one hour. The plate was washed with washing buffer (20 mM HEPES, 137 mM NaCl, 2.7 mM KCl, 0.9 mM MgCl2, 5.0 mM CaCl2, 5.6 mM D-glucose, 2.5 mM probenecid, pH7.5), and each well was added with 40 μL of this buffer. The plate was placed in High-Throughput Screening System FDSS 3000 (Hamamatsu Photonics K.K.). Measurement of fluorescence intensity by FDSS 3000 was started, and 40 μL of DMSO solutions containing different concentrations of the test compound as prepared by dilution with dilution buffer (20 mM HEPES, 137 mM NaCl, 2.7 mM KCl, 0.9 mM MgCl2, 5.0 mM CaCl2, 5.6 mM D-glucose, 2.5 mM probenecid, 0.1% Pluronic F-127, pH7.5) were dispensed to each well through the built-in automatic dispenser. Five minutes after, 40 nM ATP solution (50 μL) prepared by dilution with the dilution buffer was dispensed through the built-in automatic dispenser, and the measurement of fluorescence intensity was continued for 3 min. For each well, the specific maximum fluorescence intensity was calculated as the ratio of the maximum fluorescence intensity after addition of the ATP solution to the fluorescence intensity at the starting of the measurement. […] FDSS software (Hamamatsu Photonics K.K.) was used for calculation of the specific maximum fluorescence intensity. IC50 was calculated using Microsoft™ Excel™ (Microsoft Corporation) and XLfit™ (ID Business Solutions Ltd.).

Sequence of human P2X3 receptor (P56373 whole entry): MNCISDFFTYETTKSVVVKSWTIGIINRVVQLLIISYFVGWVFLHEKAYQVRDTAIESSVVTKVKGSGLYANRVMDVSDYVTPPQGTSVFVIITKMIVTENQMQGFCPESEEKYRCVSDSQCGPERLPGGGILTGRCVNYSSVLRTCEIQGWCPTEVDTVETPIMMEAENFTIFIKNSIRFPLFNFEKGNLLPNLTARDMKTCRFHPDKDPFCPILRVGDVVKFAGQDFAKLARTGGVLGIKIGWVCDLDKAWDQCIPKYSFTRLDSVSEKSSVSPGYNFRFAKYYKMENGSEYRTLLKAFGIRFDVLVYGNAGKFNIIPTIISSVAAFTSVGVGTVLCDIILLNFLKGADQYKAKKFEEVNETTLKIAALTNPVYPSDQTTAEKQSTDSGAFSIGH

SMILES | IC50 [nM]
COc1ccccc1C1C(C(=O)CC(C)C)=C(O)C(=O)N1c1ccc(-c2csc(C)c2)cc1 (stereo not shown) [Compound I-379] | 118
COc1ccccc1C1C(C(=O)C(C)(C)C)=C(O)C(=O)N1c1ccc(C(C)C)cc1 (stereo not shown) [Compound I-037] | 954
COCc1ccccc1C1C(C(=O)C(C)C)=C(O)C(=O)N1c1ccc(-c2ccoc2)cc1 (stereo not shown) [Compound I-204] | 43
CSc1ccccc1C1C(C(=O)C(C)(C)C)=C(O)C(=O)N1c1ccc(-c2ccon2)cc1 (stereo not shown) [Compound I-057] | 159
Cc1cc(-c2ccc(N3C(=O)C(O)=C(C(=O)CC(C)C)C3c3ccccc3C(=O)N(C)C)cc2)cs1 (stereo not shown) [Compound I-404] | 71
CCN(C)C(=O)c1ccccc1C1C(C(=O)C(C)C)=C(O)C(=O)N1c1ccc(-c2csc(C)c2)cc1 (stereo not shown) [Compound I-494] | 53
COc1ccc(F)cc1C1C(C(=O)C(C)C)=C(O)C(=O)N1c1ccc(-c2ccc(C)o2)cc1 (stereo not shown) [Compound I-454] | 36
CC(C)C(=O)C1=C(O)C(=O)N(c2ccc(-c3ccon3)cc2)C1c1ccccc1OCC1CCOCC1 (stereo not shown) [Compound I-590] | 28
Cc1cc(-c2ccc(N3C(=O)C(O)=C(C(=O)C(C)C)C3c3ccccc3S(C)(=O)=O)cc2)cs1 (stereo not shown) [Compound I-507] | 101
COc1ccccc1C1C(C(=O)CC(C)C)=C(O)C(=O)N1c1ccc(-c2cc(C)no2)cc1 (stereo not shown) [Compound I-339] | 892
COCOc1ccccc1C1C(C(=O)C(C)C)=C(O)C(=O)N1c1ccc(-c2cccs2)cc1 (stereo not shown) [Compound I-227] | 8
COc1ccccc1C1C(C(=O)C(C)(C)C)=C(O)C(=O)N1c1ccc(-c2ccoc2)nc1 (stereo not shown) [Compound I-093] | 756
COCCOc1ncccc1C1C(C(=O)C2CCCC2)=C(O)C(=O)N1c1ccc(-c2ccon2)cc1 (stereo not shown) [Compound I-521] | 554
COCCOc1ccccc1C1C(C(=O)C(C)C)=C(O)C(=O)N1c1ccc(-c2noc(C)n2)cc1 (stereo not shown) [Compound I-275] | 172
Cc1nc(-c2ccc(N3C(=O)C(O)=C(C(=O)C4CCCC4)C3c3ccccc3OCC(C)C)cc2)no1 (stereo not shown) [Compound I-519] | 33
COc1ncccc1C1C(C(=O)C(C)C)=C(O)C(=O)N1c1ccc(-c2csc(C)c2)cc1 (stereo not shown) [Compound I-320] | 274
Cc1ccc(-c2ccc(N3C(=O)C(O)=C(C(=O)C(C)C)C3c3ccccc3C(=O)N(C)C)cc2)o1 (stereo not shown) [Compound I-397] | 122
Cc1ccc(-c2ccc(N3C(=O)C(O)=C(C(=O)C(C)C)C3c3ccccc3OC(F)F)cc2)s1 (stereo not shown) [Compound I-333] | 58
COCCOc1ccccc1C1C(C(=O)CC(C)C)=C(O)C(=O)N1c1ccc(-c2noc(C)n2)cc1 (stereo not shown) [Compound I-276] | 117
Cc1ccc(-c2ccc(N3C(=O)C(O)=C(C(=O)CC(C)C)C3c3cccnc3C(=O)OC(C)C)cc2)s1 (stereo not shown) [Compound I-504] | 238

SMILES | IC50 [nM]
COc1ccccc1C1C(C(=O)C(C)(C)C)=C(O)C(=O)N1c1ccc(-c2cc[nH]c2)cc1 (stereo not shown) [Compound I-094] | 301
COc1ccccc1C1C(C(=O)CC(C)C)=C(O)C(=O)N1c1ccc(-c2ccc(C)s2)cc1 (stereo not shown) [Compound I-327] | 93
COCCOc1ccccc1C1C(C(=O)C(C)C)=C(O)C(=O)N1c1ccc(-c2nc(C)no2)cc1 (stereo not shown) [Compound I-271] | 542
CC(C)C(=O)C1=C(O)C(=O)N(c2ccc(-c3ccsc3)cc2)C1c1cccnc1OCCCO (stereo not shown) [Compound I-564] | 18
COCCOc1ncccc1C1C(C(=O)C(C)C)=C(O)C(=O)N1c1ccc(-c2ccsc2)cc1 (stereo not shown) [Compound I-169] | 19
COCCN(C)C(=O)c1ncccc1C1C(C(=O)CC(C)C)=C(O)C(=O)N1c1ccc(-c2ccc(C)s2)cc1 (stereo not shown) [Compound I-582] | 359
CCCCC(CCCC)C1C(C(=O)c2ccc(CO)cc2)=C(O)C(=O)N1c1ccc(-c2ccon2)cc1 (stereo not shown) [Compound I-007] | 100
COCc1ccccc1[C@@H]1C(C(=O)CC(C)C)=C(O)C(=O)N1c1ccc(-c2ccsc2)cc1 [Compound I-356] | 7
COCc1ccccc1C1C(C(=O)CC(C)C)=C(O)C(=O)N1c1ccc(-c2cscn2)cc1 (stereo not shown) [Compound I-422] | 361
COCc1ccccc1C1C(C(=O)C(C)C)=C(O)C(=O)N1c1ccc(-c2ccco2)cc1 (stereo not shown) [Compound I-354] | 57
COc1ncccc1C1C(C(=O)CC(C)C)=C(O)C(=O)N1c1ccc(-c2ccsc2)cc1 (stereo not shown) [Compound I-291] | 130
CC(C)(C)C(=O)C1=C(O)C(=O)N(c2ccc(-c3ccon3)cc2)C1c1ccccc1S(C)(=O)=O (stereo not shown) [Compound I-111] | 624
CC(C)CC(=O)C1=C(O)C(=O)N(c2ccc(-c3ccsc3)cc2)C1c1ccccc1OC(C)C (stereo not shown) [Compound I-293] | 12
CC(C)CC(=O)C1=C(O)C(=O)N(c2ccc(-c3ccoc3)cc2)C1c1ccccc1OCCO (stereo not shown) [Compound I-350] | 66
Cc1ccc(-c2ccc(N3C(=O)C(O)=C(C(=O)C(C)C)C3c3ccccc3CCC(=O)NC(C)C)cc2)o1 (stereo not shown) [Compound I-538] | 119
CC(C)(C)C(=O)C1=C(O)C(=O)N(c2ccc(-c3ccco3)cc2)C1c1cccnc1OCCO (stereo not shown) [Compound I-173] | 137
COCCCOc1ncccc1C1C(C(=O)C(C)C)=C(O)C(=O)N1c1ccc(-c2ccc(C)s2)cc1 (stereo not shown) [Compound I-569] | 35
COCCN(C)C(=O)c1ccccc1C1C(C(=O)C(C)C)=C(O)C(=O)N1c1ccc(-c2csc(C)c2)cc1 (stereo not shown) [Compound I-547] | 217
COCc1ccccc1C1C(C(=O)C(C)(C)C)=C(O)C(=O)N1c1ccc(-c2cc(C)no2)cc1 (stereo not shown) [Compound I-050] | 642
CC(C)CC(=O)C1=C(O)C(=O)N(c2ccc(-c3ccon3)cc2)C1c1ccccc1OC(C)C (stereo not shown) [Compound I-306] | 54

Second part, the molecule after the results:

IC50 [nM] | SMILES
46 | COCCOc1ncccc1C1c2c(C(C)(C)C)n[nH]c2C(=O)N1c1ccc(SC)cc1 (stereo not shown) [II-034]
31 | CC(C)(C)c1n[nH]c2c1C(c1ccccc1OCCO)N(c1ccc(-c3ccon3)cc1)C2=O (stereo not shown) [II-100]
245 | CC(C)(C)c1n[nH]c2c1C(c1cccc3c1OCO3)N(c1ccc(-c3ccon3)cc1)C2=O (stereo not shown) [II-006]
11 | COc1ccccc1C1c2c(C(C)(C)C)n[nH]c2C(=O)N1c1ccc(-c2cccs2)cc1 (stereo not shown) [II-213]
494 | CC(C)(C)c1n[nH]c2c1C(c1cccc[n+]1[O-])N(c1ccc(-c3ccon3)cc1)C2=O (stereo not shown) [II-058]
130 | CC(C)(CO)c1n[nH]c2c1C(c1ccccn1)N(c1ccc(-c3ccsc3)cc1)C2=O (stereo not shown) [II-234]
101 | C[S+]([O-])CCOc1ccccc1C1c2c(C(C)(C)C)n[nH]c2C(=O)N1c1ccc(-c2ccon2)cc1 (stereo not shown) [II-168]
166 | CC(C)(C)c1n[nH]c2c1C(c1ccccc1OC(F)(F)F)N(c1ccc(-c3ccon3)cc1)C2=O (stereo not shown) [II-061]
20 | COc1ccccc1C1c2c(C(C)(C)C)n[nH]c2C(=O)N1c1ccc(-c2ccoc2)nc1 (stereo not shown) [II-253]
11 | COc1ccccc1C1c2c(C(C)C)n[nH]c2C(=O)N1c1ccc(-c2ccsc2)cc1 (stereo not shown) [II-079]
24 | COc1ncccc1C1c2c(C(C)(C)CO)n[nH]c2C(=O)N1c1ccc(-c2cccs2)cc1 (stereo not shown) [II-110]
205 | COc1ccccc1C1c2c(C(C)C)n[nH]c2C(=O)N1c1ccc(-c2ccsc2)c(C)c1 (stereo not shown) [II-239]
17 | COc1cc(N2C(=O)c3[nH]nc(C(C)C)c3C2c2ccccc2OC)ccc1-c1ccsc1 (stereo not shown) [II-235]
861 | Cc1nc(-c2ccc(N3C(=O)c4[nH]nc(C(C)C)c4C3c3cccnc3OCCO)cc2)no1 (stereo not shown) [II-046]
8 | COCCOc1ccccc1C1c2c(C(C)(C)C)n[nH]c2C(=O)N1c1ccc(-c2ccco2)cc1 (stereo not shown) [II-027]
2 | COc1ccccc1C1c2c(C(C)(C)C)n[nH]c2C(=O)N1c1ccc(-c2ccsc2)nc1 (stereo not shown) [II-254]
7 | CC(C)(C)c1n[nH]c2c1C(c1ccccc1OCCNS(C)(=O)=O)N(c1ccc(-c3ccsc3)cc1)C2=O (stereo not shown) [II-171]
60 | COc1ccccc1C1c2c(CO)n[nH]c2C(=O)N1c1ccc(-c2ccsc2)cc1 (stereo not shown) [II-182]
5 | CC(C)c1n[nH]c2c1C(c1ccccc1OCC(=O)NN)N(c1ccc(-c3ccsc3)cc1)C2=O (stereo not shown) [II-051]
39 | COc1ncccc1C1c2c(C(C)(C)C)n[nH]c2C(=O)N1c1ccc(-c2ccsc2)cn1 (stereo not shown) [II-262]
410 | COc1ncccc1C1c2c(C(C)(C)C)n[nH]c2C(=O)N1c1ccc(Br)cn1 (stereo not shown) [II-259]
262 | COc1ccccc1C1c2c(C(=O)N(C)C)n[nH]c2C(=O)N1c1ccc(-c2ccsc2)cc1 (stereo not shown) [II-180]
33 | CCC(CC)(CO)c1n[nH]c2c1C(c1ccccc1OC)N(c1ccc(-c3ccon3)cc1)C2=O (stereo not shown) [II-145]
41 | COc1ccccc1C1c2c(C(C)(C)C(=O)O)n[nH]c2C(=O)N1c1ccc(-c2ccsc2)cc1 (stereo not shown) [II-165]
